This test deals with mitochondrial respiratory Complex I (Mus musculus, UniProt P03888+Q91WD5+Q9DC70). Format: biochemical.

As for `Cc1cc(OCc2nnc(SC3CCCC3)n2-c2cccnc2)ccc1-c1ccc(S(C)(=O)=O)cc1` [NMS-873], the IC50 is 471 nM.

As usually defined, the IC50 is the concentration needed to halve the response being measured. Read a high IC50 as lower potency.

The values above are taken from PMC8119374 (Biochimie, 2021).
